Data published in patent US12660812B2, “Cryoprotecting agent, cryoprotecting and cryopreserved compositions, uses thereof, and methods of cryopreservation” (PHARMACOSMOS HOLDING A/S, priority 2012, dated 2026).

Test system: adipose-derived stromal/stem cells (ASC's)
Experiment: Viability of adipose-derived stromal/stem cells after cryopreservation, flow cytometry with 7-AAD
Assay type: cell-based
Conditions: 10% DMSO
Excerpt: ASC's were harvested from adipose tissue obtained by cosmetic liposuction of the abdomen or the inner thighs using the Vibrasat device (Möller Medical GmbH & Co. KG, Fulda, Germany). The ASC's from the stromal vascular fraction were expanded ex vivo in culture medium consisting of Dulbecco's modified Eagle's medium, 1% penicillin-streptomycin, 1% GlutaMAX, and 10% pooled human platelet lysate. Cells were frozen in cryoprotective medium containing 10% DMSO or different concentrations of isomaltooligosaccharide 1 (isom) or hydrogenated isomaltooligosaccharide 1 (h-isom). Samples were frozen using a controlled rate freezer (Kryo 560-16, Planer; start temp. 4° C., −1° C./min drop to 0° C., −2° C./min drop to −45° C. and −5° C./min drop to −100° C.) and moved to −150° C. Samples were thawed in a 37° C. water bath. Flow cytometry was applied for phenotype characterization (positive for CD73, CD90, CD105 and negative for CD14, CD20, CD45 and CD34) and to estimate the viability of ASC's. The fluorescent DNA binding compound 7-Aminoactinomycin D (7-AAD) was used as a live/dead marker. Cells able to exclude 7AAD were assumed to be viable. The results are shown in FIG. 11: Isomaltooligosaccharide 1 (light grey bars), hydrogenated isomaltooligosaccharide 1 (dark grey bars) and DMSO (black bars). Data shown here are from a single experiment measured in doublets. […]

`C[S+](C)[O-]` [DMSO, dimethyl sulfoxide] was tested, and the “Viability of ASCs, result against expectation” value was “lower than expected”.
